Test results published in patent EP2361611A2, “Aqueous sustained-release drug delivery system for highly water-soluble electrolytic drugs” (Upm Pharmaceuticals, Inc., priority 2005, dated 2006).

Test: Equilibrium binding study in a two-compartment dialysis cell, HPLC
Conditions: sodium alginate 0.877 g/L, 25°C
[1] = total drug concentration 4.97 M x 10^4
[2] = total drug concentration 5.47 M x 10^4
[3] = total drug concentration 5.96 M x 10^4
[4] = total drug concentration 6.96 M x 10^4
[5] = total drug concentration 7.95 M x 10^4
[6] = total drug concentration 8.95 M x 10^4
[7] = total drug concentration 9.94 M x 10^4
[8] = total drug concentration 14.91 M x 10^4
[9] = total drug concentration 19.88 M x 10^4
[10] = total drug concentration 24.86 M x 10^4
[11] = total drug concentration 30.40 M x 10^4
[12] = total drug concentration 41.20 M x 10^4
[13] = total drug concentration 50.70 M x 10^4

Description: The studies were performed with a two compartment plexiglass dialysis cell (Hollenbeck laboratory) and having a cellulose membrane (molecular weight cutoff of 6000 Daltons) Bel-Art Products (Pequannock, NJ) placed between the two cell compartments. […] The dialysis cell was shaken at 80 RPM in a thermostatic water bath at 25°C until equilibrium was reached (30 h). The solution was removed from the drug compartment and the concentrations of free drug and polymer-bound drug measured by high performance liquid chromatography ("HPLC").

CC(C)NCC(O)COc1cccc2ccccc12 (stereo not drawn) [propranolol]
Amount bound per gram of polymer [1]: 4.59 M x 10^4 | Bound drug concentration [1]: 4.03 M x 10^4 | Free drug concentration [1]: 0.94 M x 10^4 | r/(Df) [1]: 4.88 L/g | Amount bound per gram of polymer [2]: 4.84 M x 10^4 | Bound drug concentration [2]: 4.25 M x 10^4 | Free drug concentration [2]: 1.22 M x 10^4 | r/(Df) [2]: 3.97 L/g | Amount bound per gram of polymer [3]: 5.16 M x 10^4 | Bound drug concentration [3]: 4.53 M x 10^4 | Free drug concentration [3]: 1.43 M x 10^4 | r/(Df) [3]: 3.60 L/g | Amount bound per gram of polymer [4]: 5.86 M x 10^4 | Bound drug concentration [4]: 5.14 M x 10^4 | Free drug concentration [4]: 1.82 M x 10^4 | r/(Df) [4]: 3.21 L/g | Amount bound per gram of polymer [5]: 6.23 M x 10^4 | Bound drug concentration [5]: 5.46 M x 10^4 | Free drug concentration [5]: 2.49 M x 10^4 | r/(Df) [5]: 2.49 L/g | Amount bound per gram of polymer [6]: 6.12 M x 10^4 | Bound drug concentration [6]: 5.37 M x 10^4 | Free drug concentration [6]: 3.57 M x 10^4 | r/(Df) [6]: 1.71 L/g | Amount bound per gram of polymer [7]: 6.66 M x 10^4 | Bound drug concentration [7]: 5.83 M x 10^4 | Free drug concentration [7]: 4.10 M x 10^4 | r/(Df) [7]: 1.62 L/g | Amount bound per gram of polymer [8]: 8.61 M x 10^4 | Free drug concentration [8]: 7.36 M x 10^4 | r/(Df) [8]: 1.17 L/g | Amount bound per gram of polymer [9]: 9.81 M x 10^4 | Bound drug concentration [9]: 8.60 M x 10^4 | Free drug concentration [9]: 11.28 M x 10^4 | r/(Df) [9]: 0.87 L/g | Amount bound per gram of polymer [10]: 10.73 M x 10^4 | Bound drug concentration [10]: 9.41 M x 10^4 | Free drug concentration [10]: 15.45 M x 10^4 | r/(Df) [10]: 0.60 L/g | Amount bound per gram of polymer [11]: 11.49 M x 10^4 | Bound drug concentration [11]: 10.08 M x 10^4 | Free drug concentration [11]: 20.32 M x 10^4 | r/(Df) [11]: 0.57 L/g | Amount bound per gram of polymer [12]: 12.37 M x 10^4 | Bound drug concentration [12]: 10.84 M x 10^4 | Free drug concentration [12]: 30.35 M x 10^4 | r/(Df) [12]: 0.41 L/g | Amount bound per gram of polymer [13]: 12.93 M x 10^4 | Bound drug concentration [13]: 11.34 M x 10^4 | Free drug concentration [13]: 39.36 M x 10^4 | r/(Df) [13]: 0.33 L/g
